How the values were obtained:
[1] = system: CAL851; test: CelltiterGlo viability cell assay; assay type: cell-based
Method: (§1) Supplementary Figure 13. […] Viability of
(§2) (a) Multiple Myeloma lines and (b) Breast Cancer cell lines following 3 or 6 days treatment with […]
(§3) manufacturer’s instructions as described in the Supplementary methods. Data are normalized to DMSO control. N=3 biological replicates, +/- SEM. Source data are provided as a Source Data […]
(§4) CelltiterGlo viability cell assay
(§5) Cells were seeded in 96 well plates at per-well densities of 10000 (MDA-MB436, ATCC-HTB130), 15000 (8226, kind gift from Rodger Tiedemann, Princess Margaret Cancer Centre), […]
(§6) kind gift from Rodger Tiedemann, Princess Margaret Cancer Centre) and 50000 (CAL851, kind gift from Mathieu Lupien, Princess Margaret Cancer Centre) and were treated at increasing concentrations of compounds ranging from 0.01 μM to 30 μM and assessed for proliferation using CelltiterGlo (Promega) following manufacturer’s instructions, as readout on days 3 and 6 as indicated. All cell lines were mycoplasma negative, as determined by MycoAlert™ Mycoplasma Detection Kit(Lonza). […]

[2] = system: SKMM2; test: CelltiterGlo viability cell assay; assay type: cell-based
Method: as §1, §2, §3, §4, §5, §6

## COc1cc(OC)cc(-c2noc(N3CCN(C)C4(CCN(c5ccccc5)CC4)C3)n2)c1 [MRK-740N]
[1]; CAL851, 3 day, 0.03 uM
  viability Average: 101.16
  viability Replicate 1: 95.74
  viability Replicate 2: 100.94
  viability Replicate 3: 106.79
[1]; CAL851, 3 day, 0.1 uM
  viability Average: 104.74
  viability Replicate 1: 106.32
  viability Replicate 2: 96.40
  viability Replicate 3: 111.49
[1]; CAL851, 3 day, 0.3 uM
  viability Average: 106.71
  viability Replicate 1: 111.33
  viability Replicate 2: 101.82
  viability Replicate 3: 106.99
[1]; CAL851, 3 day, 1 uM
  viability Average: 96.30
  viability Replicate 1: 98.38
  viability Replicate 2: 96.24
  viability Replicate 3: 94.27
[1]; CAL851, 3 day, 3 uM
  viability Average: 97.71
  viability Replicate 1: 91.85
  viability Replicate 2: 95.91
  viability Replicate 3: 105.37
[1]; CAL851, 3 day, 9.5 uM
  viability Average: 95.86
  viability Replicate 1: 89.90
  viability Replicate 2: 94.75
  viability Replicate 3: 102.94
[1]; CAL851, 3 day, 30 uM
  viability Average: 88.50
  viability Replicate 1: 89.70
  viability Replicate 2: 92.97
  viability Replicate 3: 82.83
[1]; CAL851, 6 day, 0.01 uM
  viability Average: 99.23
  viability Replicate 1: 100.50
  viability Replicate 2: 95.18
  viability Replicate 3: 102.02
[1]; CAL851, 6 day, 0.03 uM
  viability Average: 103.06
  viability Replicate 1: 101.15
  viability Replicate 2: 96.95
  viability Replicate 3: 111.07
[1]; CAL851, 6 day, 0.1 uM
  viability Average: 96.92
  viability Replicate 1: 94.85
  viability Replicate 2: 96.64
  viability Replicate 3: 99.28
[1]; CAL851, 6 day, 0.3 uM
  viability Average: 101.38
  viability Replicate 1: 95.47
  viability Replicate 2: 94.74
  viability Replicate 3: 113.94
[1]; CAL851, 6 day, 1 uM
  viability Average: 102.45
  viability Replicate 1: 100.66
  viability Replicate 2: 100.26
  viability Replicate 3: 106.42
[1]; CAL851, 6 day, 3 uM
  viability Average: 100.92
  viability Replicate 1: 96.08
  viability Replicate 2: 95.38
  viability Replicate 3: 111.29
[1]; CAL851, 6 day, 9.5 uM
  viability Average: 96.88
  viability Replicate 1: 95.12
  viability Replicate 2: 99.49
  viability Replicate 3: 96.04
[1]; CAL851, 6 day, 30 uM
  viability Average: 87.30
  viability Replicate 1: 87.23
  viability Replicate 2: 87.15
  viability Replicate 3: 87.51
[2]; SKMM2, 3 day, 0.01 uM
  viability Average: 99.67
  viability Replicate 1: 98.81
  viability Replicate 2: 100.27
  viability Replicate 3: 99.94
[2]; SKMM2, 3 day, 0.03 uM
  viability Average: 99.81
  viability Replicate 1: 100.19
  viability Replicate 2: 99.28
  viability Replicate 3: 99.96
[2]; SKMM2, 3 day, 0.1 uM
  viability Average: 99.75
  viability Replicate 1: 99.33
  viability Replicate 2: 101.27
  viability Replicate 3: 98.65
[2]; SKMM2, 3 day, 0.3 uM
  viability Average: 100.91
  viability Replicate 1: 100.74
  viability Replicate 2: 101.32
  viability Replicate 3: 100.69
[2]; SKMM2, 3 day, 1 uM
  viability Average: 99.32
  viability Replicate 1: 99.24
  viability Replicate 2: 100.37
  viability Replicate 3: 98.34
[2]; SKMM2, 3 day, 3 uM
  viability Average: 97.16
  viability Replicate 1: 96.17
  viability Replicate 2: 98.52
  viability Replicate 3: 96.79
[2]; SKMM2, 3 day, 9.5 uM
  viability Average: 95.36
  viability Replicate 1: 96.79
  viability Replicate 2: 94.04
  viability Replicate 3: 95.26
[2]; SKMM2, 3 day, 30 uM
  viability Average: 58.34
  viability Replicate 1: 67.94
  viability Replicate 2: 41.11
  viability Replicate 3: 65.95
[2]; SKMM2, 6 day, 0.01 uM
  viability Average: 99.21
  viability Replicate 1: 91.53
